Key:
Type in all cases: in vivo
[1] = tested on: Rhipicephalus (Boophilus) microplus larvae (strain Parkhurst, resistant against synthetic pyrethroids); assay: Rhipicephalus (Boophilus) microplus in-vitro contact test, larval cattle tick; details: after 48 hours, read-out: efficacy (larvae dead or moribund); for pest or weed control at 1 µg/cm2, 100 g/ha: 1 μg/cm^2 (=100 g/ha); for pest or weed control at 5 µg/cm2, 500 g/ha: 5 μg/cm^2 (=500 g/ha)
Experimental: Rhipicephalus (Boophilus) microplus—In-Vitro Contact Tests Larval Cattle Tick (Strain Parkhurst, Resistant Against Synthetic Pyrethroids)
9 mg compound is solved in 1 mL acetone and diluted with acetone to the desired concentration. […] the test solution is filled in 25 mL glass test tubes and homogeneously distributed on the inner walls by rotation and tilting on a shaking device (2 h at 30 rpm). With a compound concentration of 900 ppm, an inner surface of 44.7 cm^2 and a homogeneous distribution, a dose of 5 μg/cm^2 is achieved.
After the solvent has evaporated, each test tube is filled with 20-50 cattle tick larvae (Rhipicephalus microplus), closed with a perforated lid and incubated in a horizontal position at 85% relative humidity and 27° C. in an incubator. After 48 hours efficacy is determined. The larvae are patted on the ground of the tubes and negative geotactic behaviour is recorded.
An efficacy of 100% means all larvae are dead or moribund; 0% means no larvae are dead or moribund.

[2] = tested on: fall armyworm larvae (Spodoptera frugiperda); assay: Spodoptera frugiperda spray test; details: 168 h, maize leaf sections, after 7 days
Experimental: Spodoptera fruaiperda—Spray Test
Solvent: 78.0 parts by weight acetone • 1.5 parts by weight dimethylformamide
(§1) Emulsifier: alkylarylpolyglycol ether
(§2) To produce a suitable preparation of active compound, 1 part by weight of active compound is mixed with the stated amount of solvents and is diluted with water, containing an emulsifier concentration of 1000 ppm, to the desired concentration. Further test concentrations are prepared by dilution with emulsifier containing water.
Maize (Zea mays) leaf sections are sprayed with a preparation of the active ingredient of the desired concentration. Once dry, the leaf sections are infested with fall armyworm larvae (Spodoptera frugiperda).
After 7 days mortality in % is determined. 100% means all caterpillars have been killed and 0% means none of the caterpillars have been killed.

[3] = tested on: larvae of the banded cucumber beetle (Diabrotica balteata); assay: Diabrotica balteata spray test; details: 168 h, after 7 days, read-out: efficacy (seedling growth); for pest or weed control at 32 µg/disc, 100 g/ha: 100 g/ha (=32 μg/well); for pest or weed control at 6.4 µg/disc, 20 g/ha: 20 g/ha (=6.4 μg/well)
Experimental: Diabrotica balteata—Spray Test
Solvent: 78.0 parts by weight of acetone • • 1.5 parts by weight of dimethylformamide
as §1
as §2, with “solvent,” for “solvents”, “and the concentrate” for “and”
Soaked wheat seeds (Triticum aestivum) are placed in a multiple well plate filled with agar and some water and are incubated for 1 day to germinate (5 seeds per well). The germinated wheat seeds are sprayed with a test solution containing the desired concentration of the active ingredient. Afterwards each unit is infected with 10-20 larvae of the banded cucumber beetle (Diabrotica balteata).
After 7 days efficacy in % is determined. 100% means all the seedlings have grown up like in the untreated, uninfected control; 0% means none of the seedlings have grown.

SMILES	pest or weed control at 1 µg/cm2, 100 g/ha [1] [%]	pest or weed control at 5 µg/cm2, 500 g/ha [1] [%]	mortality at 100 g/ha [2] [%]	pest or weed control at 32 µg/disc, 100 g/ha [3] [%]	pest or weed control at 6.4 µg/disc, 20 g/ha [3] [%]
CC(NC(=O)c1cc(Cl)cc(S(=O)(=O)C(F)(F)F)c1)c1nccnc1-n1cc(C#N)cn1 (racemic) [Example I-114, (rac)-3-Chloro-N-{1-[3-(4-cyano-1H-pyrazol-1-yl)pyrazin-2-yl]ethyl}-5-(trifluoromethanesulfonyl)benzamide]	90	90	100	100	–
CC(NC(=O)c1cc(Br)cc(OC(F)(F)F)c1)c1nccnc1-c1ncc(C(=O)N(C)CC2CC2)s1 (racemic) [Example I-76, (rac)-2-(3-{1-[3-Bromo-5-(trifluoromethoxy)benzamido]ethyl}pyrazin-2-yl)-N-(cyclopropylmethyl)-N-methyl-1,3-thiazole-5-carboxamide]	100	100	100	100	100
CC(NC(=O)c1cc(Cl)cc(C(F)(F)F)c1)c1nccnc1-c1ccc(C(F)(F)F)cn1 (racemic) [Example I-46, (rac)-3-Chloro-5-(trifluoromethyl)-N-[1-{3-[5-(trifluoromethyl)pyridin-2-yl]pyrazin-2-yl}ethyl]benzamide]	100	100	100	100	–
CC(NC(=O)c1cc(C(F)(F)F)cc(C(F)(F)F)c1)c1nccnc1-n1cc(C#N)cn1 (racemic) [Example I-100, N-{(rac)-1-[3-(4-Cyano-1H-pyrazol-1-yl)pyrazin-2-yl]ethyl}-3,5-bis(trifluoromethyl)benzamide]	100	100	100	100	100
CC(NC(=O)c1cc(Br)cc(OC(F)(F)F)c1)c1nccnc1-c1ncc(C(=O)N(C)CC#N)s1 (racemic) [Example I-75, (rac)-2-(3-{1-[3-Bromo-5-(trifluoromethoxy)benzamido]ethyl}pyrazin-2-yl)-N-(cyanomethyl)-N-methyl-1,3-thiazole-5-carboxamide]	90	90	100	100	–
CC(NC(=O)c1cc(C(F)(F)F)cc(C(F)(F)F)c1)c1nccnc1-c1ncc(C(=O)N(C)C)s1 (racemic) [Example I-69, (rac)-2-(3-{1-[3,5-Bis(trifluoromethyl)benzamido]ethyl}pyrazin-2-yl)-N,N-dimethyl-1,3-thiazole-5-carboxamide]	100	100	100	100	100
CC(NC(=O)c1cc(C#N)cc(OC(F)(F)F)c1)c1nccnc1-n1cc(C#N)cn1 (racemic) [Example I-116, (rac)-3-Cyano-N-{1-[3-(4-cyano-1H-pyrazol-1-yl)pyrazin-2-yl]ethyl}-5-(trifluoromethoxy)benzamide]	90	100	100	100	100
CC(NC(=O)c1cc(Br)cc(C(F)(F)F)c1)c1nccnc1-n1cc(C#N)cn1 (racemic) [Example I-113, (rac)-3-Bromo-N-{1-[3-(4-cyano-1H-pyrazol-1-yl)pyrazin-2-yl]ethyl}-5-(trifluoromethyl)benzamide]	100	100	100	100	100
Cc1cnc(C(C)NC(=O)c2cc(C(F)(F)F)cc(C(F)(F)F)c2)c(-c2ncc(C(=O)N(C)CC#N)s2)n1 (racemic) [Example I-124, (rac)-2-(3-{1-[3,5-Bis(trifluoromethyl)benzamido]ethyl}-6-methylpyrazin-2-yl)-N-(cyanomethyl)-N-methyl-1,3-thiazole-5-carboxamide]	100	100	100	100	100
CC(NC(=O)c1cc(C(F)(F)F)cc(C(F)(F)F)c1)c1nccnc1-n1cc(C(F)(F)F)cn1 (racemic) [Example I-92, (rac)-3,5-Bis(trifluoromethyl)-N-[1-{3-[4-(trifluoromethyl)-1H-pyrazol-1-yl]pyrazin-2-yl}ethyl]benzamide]	100	100	100	100	100
CC(NC(=O)c1cc(OC(F)F)cc(OC(F)F)c1)c1nccnc1-c1ncc(C(=O)N(C)CC2CC2)s1 (racemic) [Example I-143, (rac)-2-(3-{1-[3,5-Bis(difluoromethoxy)benzamido]ethyl}pyrazin-2-yl)-N-(cyclopropylmethyl)-N-methyl-1,3-thiazole-5-carboxamide]	100	90	100	100	100
CC(NC(=O)c1cc(C(F)(F)F)cc(C(F)(F)F)c1)c1nccnc1-n1cc(C(=O)N2CCOCC2)cn1 (racemic) [Example I-90, N-[(rac)-1-{3-[4-(Morpholine-4-carbonyl)-1H-pyrazol-1-yl]pyrazin-2-yl}ethyl]-3,5-bis(trifluoromethyl)benzamide]	100	100	100	100	–
CC(NC(=O)c1cc(Br)cc(C(F)(F)F)c1)c1nccnc1-c1ncc(C(=O)N2C[C@@H](C)O[C@@H](C)C2)s1 (mixture of isomers) [Example I-120, (rac)-3-Bromo-N-[1-(3-{5-[(cis)-2,6-dimethylmorpholine-4-carbonyl]-1,3-thiazol-2-yl}pyrazin-2-yl)ethyl]-5-(trifluoromethyl)benzamide]	100	100	100	100	–
CC(NC(=O)c1cc(Cl)cc(S(C)(=O)=O)c1)c1nccnc1-c1ncc(C(=O)N(C)CC#N)s1 (racemic) [Example I-77, (rac)-2-(3-{1-[3-Chloro-5-(methanesulfonyl)benzamido]ethyl}pyrazin-2-yl)-N-(cyanomethyl)-N-methyl-1,3-thiazole-5-carboxamide]	–	–	100	100	–
CC(NC(=O)c1cc(Br)cc(OC(F)(F)F)c1)c1nccnc1-n1cc(C#N)cn1 (racemic) [Example I-102, (rac)-3-Bromo-N-{1-[3-(4-cyano-1H-pyrazol-1-yl)pyrazin-2-yl]ethyl}-5-(trifluoromethoxy)benzamide]	90	90	100	100	100
CCN(C)C(=O)c1cnn(-c2nccnc2C(C)NC(=O)c2cc(C(F)(F)F)cc(C(F)(F)F)c2)c1 (racemic) [Example I-89, (rac)-1-(3-{1-[3,5-Bis(trifluoromethyl)benzamido]ethyl}pyrazin-2-yl)-N-ethyl-N-methyl-1H-pyrazole-4-carboxamide]	100	100	100	100	100
CC(NC(=O)c1cc(C#N)cc(C(F)(F)F)c1)c1nccnc1-c1ccc(C(F)(F)F)cn1 (racemic) [Example I-41, (rac)-3-Cyano-5-(trifluoromethyl)-N-[1-{3-[5-(trifluoromethyl)pyridin-2-yl]pyrazin-2-yl}ethyl]benzamide]	–	–	83	–	100
